In brackets after ≈: the same amount, converted by molar mass. Activity calls are given as the source filed them. The calls are words filed in the database; no cut-off is given here.
Columns and labels:
Streptococcus pyogenes [1] = test: Antimicrobial activity against strong ciprofloxacin-resistant Streptococcus pyogenes by agar dilution method; format: functional
Streptococcus pyogenes [2] = test: Antimicrobial activity against mild ciprofloxacin-resistant Streptococcus pyogenes by agar dilution method; format: functional
Streptococcus pyogenes [3] = test: Antimicrobial activity against ciprofloxacin-susceptible Streptococcus pyogenes harboring Asp91/Asn mutation in parC gene by agar dilution method; format: functional
Streptococcus pyogenes [4] = test: Antimicrobial activity against strong ciprofloxacin-resistant Streptococcus pyogenes at 10 ug by disk diffusion assay; format: functional; conditions: read-out: IZ
Streptococcus pyogenes [5] = test: Antimicrobial activity against strong ciprofloxacin-resistant Streptococcus pyogenes assessed as 1 fold decrease in compound MIC by agar dilution method; format: functional, organism-based
Streptococcus pyogenes [6] = test: Antimicrobial activity against mild ciprofloxacin-resistant Streptococcus pyogenes assessed as 1 fold decrease in compound MIC by agar dilution method; format: functional, organism-based
Streptococcus pyogenes [7] = test: Antimicrobial activity against ciprofloxacin-susceptible Streptococcus pyogenes harboring Asp91/Asn mutation in parC gene assessed as 1 fold decrease in compound MIC by agar dilution method; format: functional, organism-based
Streptococcus pyogenes [8] = test: Antimicrobial activity against macrolide-resistant Streptococcus pyogenes emm77/ST399/T28 expressing tetM gene by agar dilution method; format: functional

SMILES | MIC (Streptococcus pyogenes [1]) [mg/L] | MIC50 (Streptococcus pyogenes [2]) [mg/L] | MIC90 (Streptococcus pyogenes [2]) [mg/L] | MIC50 (Streptococcus pyogenes [3]) [mg/L] | MIC90 (Streptococcus pyogenes [3]) [mg/L] | zone of inhibition at 10 µg/disc (Streptococcus pyogenes [4]) [mm] | Activity (Streptococcus pyogenes [5]) | Activity (Streptococcus pyogenes [6]) | Activity (Streptococcus pyogenes [7]) | MIC (Streptococcus pyogenes [8]) [mg/L]
CC1COc2c(N3CCN(C)CC3)c(F)cc3c(=O)c(C(=O)O)cn1c23 (configuration not stated) [OFLOXACIN] | 64 (≈ 177 µM) | 4 (≈ 11.1 µM) | 8 (≈ 22.1 µM) | 1 (≈ 2.77 µM) | 2 (≈ 5.53 µM) | 0 | – | – | – | –
O=C(O)c1cn(C2CC2)c2cc(N3CCNCC3)c(F)cc2c1=O [CIPROFLOXACIN] | 32 (≈ 96.6 µM) | – | – | < 0.5 | 1 (≈ 3.02 µM) | 0 | Active | Active | Active | –
CO/N=C1\CN(c2nc3c(cc2F)c(=O)c(C(=O)O)cn3C2CC2)CC1CN (configuration not stated) [GEMIFLOXACIN] | 1 (≈ 2.57 µM) | ≤ 0.25 | ≤ 0.25 | ≤ 0.25 | ≤ 0.25 | 0 | – | – | – | –
C[C@H]1COc2c(N3CCN(C)CC3)c(F)cc3c(=O)c(C(=O)O)cn1c23.C[C@H]1COc2c(N3CCN(C)CC3)c(F)cc3c(=O)c(C(=O)O)cn1c23.O [LEVOFLOXACIN] | 32 | 2 | 2 | ≤ 0.5 | 1 | 0 | – | – | – | –
CCn1cc(C(=O)O)c(=O)c2cc(F)c(N3CCNCC3)cc21 [NORFLOXACIN] | 64 (≈ 200 µM) | 32 (≈ 100 µM) | > 32 | 4 (≈ 12.5 µM) | 8 (≈ 25.1 µM) | 0 | Active | Active | Active | –
COc1c(N2C[C@@H]3CCCN[C@@H]3C2)c(F)cc2c(=O)c(C(=O)O)cn(C3CC3)c12 [MOXIFLOXACIN] | 4 (≈ 9.96 µM) | 0.5 (≈ 1.25 µM) | 0.5 (≈ 1.25 µM) | ≤ 0.25 | ≤ 0.25 | 0 | – | – | – | –
Cc1c(F)c(N2CCNC(C)C2)cc2c1c(=O)c(C(=O)O)cn2C1CC1 (configuration not stated) [GREPAFLOXACIN] | 16 (≈ 44.5 µM) | 2 (≈ 5.56 µM) | 2 (≈ 5.56 µM) | ≤ 0.5 | 1 (≈ 2.78 µM) | 0 | – | – | – | –
CN(C)[C@@H]1C(O)=C(C(N)=O)C(=O)[C@@]2(O)C(O)=C3C(=O)c4c(O)cccc4[C@@](C)(O)[C@H]3C[C@@H]12 [TETRACYCLINE] | – | – | – | – | – | – | – | – | – | 8 (≈ 18 µM)

From ChEMBL document CHEMBL1212736, “Prevalence and clonal characterization of Streptococcus pyogenes clinical isolates with reduced fluoroquinolone susceptibility in Spain” (2010)
